Consider 13 compounds from PubChem BioAssay AID180 (DTP/NCI, 2004).

Each structure is given as a SMILES string. Values joined by “and” are separate entries in the source; they are usually repeats but may differ in a detail not shown here. Identical values can stand only once.

For the assay, the system named is BDF1 mice, Adenocarcinoma 755 s.c., tumor weight T/C. Briefly: NCI In Vivo Anticancer Drug Screen. Data for tumor model Adenocarcinoma 755 (subcutaneous) in B6D2F1 (BDF1) mice. The note with it: endpoint: mean tumor weight, higher = larger tumour. The protocol: The antitumor activity of compounds was measured in mice bearing transplantable tumors. Survival or tumor size were measured and the results are expressed as the measurement made in the treated group (T) divided by the measurement made in the vehicle treated control group (C). The tumor model used in this assay is Adenocarcinoma 755 (subcutaneous) in B6D2F1 (BDF1) mice

Setting [1] is: dose: 75.0 mg/kg/injection, schedule: Q01DX011 (ip), vehicle: methylcellulose (MC).

As to `CC(=O)OCC1OC(n2cnc3c(=S)nc(N)[nH]c32)C(OC(C)=O)C1OC(C)=O` (stereo not drawn), the T/C – broadly, the result in the treated group divided by that in the control group, in per cent – by setting is: (dose: 0.1 mg/kg/injection, schedule: Q01DX011 (ip), vehicle: carboxymethylcellulose (CMC)) 86 % of control; (dose: 0.2 mg/kg/injection, schedule: Q01DX011 (ip), vehicle: carboxymethylcellulose (CMC)) 77 % of control; (dose: 0.5 mg/kg/injection, schedule: Q01DX011 (ip), vehicle: carboxymethylcellulose (CMC)) 69 % of control; (dose: 1.0 mg/kg/injection, schedule: Q01DX011 (ip), vehicle: carboxymethylcellulose (CMC)) 11 % of control and 35 % of control; (dose: 1.5 mg/kg/injection, schedule: Q01DX011 (ip), vehicle: other) 26 % of control; (dose: 3.0 mg/kg/injection, schedule: Q01DX011 (ip), vehicle: other) 3 % of control.

In the case of `Cn1cnc([N+](=O)[O-])c1Sc1nc(N)nc2c1ncn2C1OC(CO)C(O)C1O` (stereo not drawn), the T/C is 89 % of control (dose: 0.03 mg/kg/injection, schedule: Q01DX011 (ip), vehicle: methylcellulose (MC)); 76 % of control (dose: 0.06 mg/kg/injection, schedule: Q01DX011 (ip), vehicle: methylcellulose (MC)); 14 % of control (dose: 0.11 mg/kg/injection, schedule: Q01DX011 (ip), vehicle: methylcellulose (MC)); 1 % of control and 2 % of control (dose: 0.22 mg/kg/injection, schedule: Q01DX011 (ip), vehicle: methylcellulose (MC)); 2 % of control (dose: 0.44 mg/kg/injection, schedule: Q01DX011 (ip), vehicle: methylcellulose (MC)); 1 % of control (dose: 0.88 mg/kg/injection, schedule: Q01DX011 (ip), vehicle: methylcellulose (MC)). Also, the T/C (dose: 1.75 mg/kg/injection, schedule: Q01DX011 (ip), vehicle: methylcellulose (MC)) is 2 % of control.

For the compound `CC(Sc1ncnc2nc[nH]c12)c1ccccc1` (stereo not drawn), the T/C (dose: 0.37 mg/kg/injection, schedule: Q01DX011 (ip), vehicle: methylcellulose (MC)) is 60 % of control; the T/C (dose: 0.65 mg/kg/injection, schedule: Q01DX011 (ip), vehicle: methylcellulose (MC)) was 83 % of control; the T/C (dose: 1.11 mg/kg/injection, schedule: Q01DX011 (ip), vehicle: methylcellulose (MC)) is 35 % of control; the T/C (dose: 1.3 mg/kg/injection, schedule: Q01DX011 (ip), vehicle: methylcellulose (MC)) is 97 % of control; the T/C (dose: 2.5 mg/kg/injection, schedule: Q01DX011 (ip), vehicle: methylcellulose (MC)) was 37 % of control; the T/C (dose: 3.33 mg/kg/injection, schedule: Q01DX011 (ip), vehicle: methylcellulose (MC)) was 62 % of control. Also, the T/C (dose: 5.0 mg/kg/injection, schedule: Q01DX011 (ip), vehicle: methylcellulose (MC)) was 12 % of control and the T/C (dose: 10.0 mg/kg/injection, schedule: Q01DX011 (ip), vehicle: methylcellulose (MC)) is 18 % of control.

On to `C#CCn1cnc2c(Cl)ncnc21`, for which the T/C runs as follows: (dose: 5.0 mg/kg/injection, schedule: Q01DX011 (ip), vehicle: carboxymethylcellulose (CMC)) 61 % of control; (dose: 15.0 mg/kg/injection, schedule: Q01DX011 (ip), vehicle: carboxymethylcellulose (CMC)) 48 % of control; (dose: 25.0 mg/kg/injection, schedule: Q01DX011 (ip), vehicle: carboxymethylcellulose (CMC)) 13 % of control; (dose: 35.0 mg/kg/injection, schedule: Q01DX011 (ip), vehicle: carboxymethylcellulose (CMC)) 14 % of control; (dose: 50.0 mg/kg/injection, schedule: Q01DX011 (ip), vehicle: carboxymethylcellulose (CMC)) 8 % of control; (dose: 100.0 mg/kg/injection, schedule: Q01DX011 (ip), vehicle: carboxymethylcellulose (CMC)) 3 % of control.

Consider `Nc1nc(=S)c2ncn(C3CCCCC3)c2[nH]1`, for which the T/C was 81 % of control (dose: 12.5 mg/kg/injection, schedule: Q01DX011 (ip), vehicle: methylcellulose (MC)); 86 % of control (dose: 25.0 mg/kg/injection, schedule: Q01DX011 (ip), vehicle: methylcellulose (MC)); 50 % of control (dose: 50.0 mg/kg/injection, schedule: Q01DX011 (ip), vehicle: methylcellulose (MC)).

In the case of `Brc1ccc(CSc2ncnc3nc[nH]c23)cc1`, the T/C was 70 % of control (dose: 43.75 mg/kg/injection, schedule: Q01DX011 (ip), vehicle: methylcellulose (MC)); 28 % of control (dose: 87.5 mg/kg/injection, schedule: Q01DX011 (ip), vehicle: methylcellulose (MC)); 10 % of control (dose: 175.0 mg/kg/injection, schedule: Q01DX011 (ip), vehicle: methylcellulose (MC)); 1 % of control (dose: 350.0 mg/kg/injection, schedule: Q01DX011 (ip), vehicle: methylcellulose (MC)).

Take `O=S1(=O)OCc2ccccc21`: the T/C runs as follows: (dose: 27.5 mg/kg/injection, schedule: Q01DX011 (ip), vehicle: carboxymethylcellulose (CMC)) 113 % of control; (dose: 27.5 mg/kg/injection, schedule: Q01DX011 (ip), vehicle: methylcellulose (MC)) 118 % of control; (dose: 55.0 mg/kg/injection, schedule: Q01DX011 (ip), vehicle: carboxymethylcellulose (CMC)) 68 % of control; (dose: 55.0 mg/kg/injection, schedule: Q01DX011 (ip), vehicle: methylcellulose (MC)) 98 % of control; (dose: 110.0 mg/kg/injection, schedule: Q01DX011 (ip), vehicle: methylcellulose (MC)) 17 % of control.

On to `CC(=O)NCCc1ccccc1`, for which the T/C runs as follows: (dose: 12.5 mg/kg/injection, schedule: Q01DX011 (ip), vehicle: other) 106 % of control; (dose: 25.0 mg/kg/injection, schedule: Q01DX011 (ip), vehicle: other) 71 % of control; (dose: 50.0 mg/kg/injection, schedule: Q01DX011 (ip), vehicle: other) 99 % of control; (dose: 100.0 mg/kg/injection, schedule: Q01DX011 (ip), vehicle: other) 87 % of control; (dose: 200.0 mg/kg/injection, schedule: Q01DX011 (ip), vehicle: other) 59 % of control; (dose: 400.0 mg/kg/injection, schedule: Q01DX011 (ip), vehicle: other) 49 % of control.

Consider `C[C@]12CCC(=O)C=C1CC[C@H]1[C@@H]3CC[C@](O)(C(=O)CF)[C@@]3(C)C[C@H](O)[C@@]12F`, for which the T/C is, setting by setting: (dose: 0.87 mg/kg/injection, schedule: Q01DX011 (sc), vehicle: steriod suspending solution) 86 % of control; (dose: 1.75 mg/kg/injection, schedule: Q01DX011 (sc), vehicle: steriod suspending solution) 68 % of control; (dose: 3.5 mg/kg/injection, schedule: Q01DX011 (sc), vehicle: steriod suspending solution) 66 % of control and 69 % of control; (dose: 7.0 mg/kg/injection, schedule: Q01DX011 (sc), vehicle: steriod suspending solution) 29 % of control and 34 % of control and 40 % of control; (dose: 28.0 mg/kg/injection, schedule: Q01DX011 (sc), vehicle: steriod suspending solution) 9 % of control and 28 % of control; (dose: 56.0 mg/kg/injection, schedule: Q01DX011 (sc), vehicle: steriod suspending solution) 10 % of control and 31 % of control.

For the compound `c1ccc2cc(SCCCN3CCOCC3)ccc2c1`, the T/C (dose: 37.5 mg/kg/injection, schedule: Q01DX011 (ip), vehicle: methylcellulose (MC)) is 90 % of control and 107 % of control; the T/C (dose: 37.5 mg/kg/injection, schedule: Q01DX011 (ip), vehicle: saline) was 115 % of control; the T/C under setting [1] was 103 % of control; the T/C (dose: 75.0 mg/kg/injection, schedule: Q01DX011 (ip), vehicle: saline) was 59 % of control; the T/C (dose: 150.0 mg/kg/injection, schedule: Q01DX011 (ip), vehicle: methylcellulose (MC)) was 70 % of control; the T/C (dose: 150.0 mg/kg/injection, schedule: Q01DX011 (ip), vehicle: saline) is 20 % of control.

Regarding `N#[N+]c1nc[nH]c1C(N)=O`, the T/C (dose: 1.25 mg/kg/injection, schedule: Q01DX011 (ip), vehicle: methylcellulose (MC)) was 61 % of control.

On to `[OH-].[OH-].[Pd+2].c1ccc(CSc2ncnc3nc[nH]c23)cc1.c1ccc(CSc2ncnc3nc[nH]c23)cc1.c1ccc(CSc2ncnc3nc[nH]c23)cc1.c1ccc(CSc2ncnc3nc[nH]c23)cc1`, for which the T/C reads like this: (dose: 3.0 mg/kg/injection, schedule: Q01DX011 (ip), vehicle: saline) 76 % of control; (dose: 6.0 mg/kg/injection, schedule: Q01DX011 (ip), vehicle: saline) 36 % of control; (dose: 12.0 mg/kg/injection, schedule: Q01DX011 (ip), vehicle: saline) 17 % of control; (dose: 12.5 mg/kg/injection, schedule: Q01DX011 (ip), vehicle: saline) 16 % of control; (dose: 25.0 mg/kg/injection, schedule: Q01DX011 (ip), vehicle: saline) 1 % of control; (dose: 50.0 mg/kg/injection, schedule: Q01DX011 (ip), vehicle: saline) 1 % of control. For the same compound, the T/C was 1 % of control (dose: 100.0 mg/kg/injection, schedule: Q01DX011 (ip), vehicle: saline) and 1 % of control (dose: 200.0 mg/kg/injection, schedule: Q01DX011 (ip), vehicle: saline).

In the case of `Cn1c(=O)c2c(nc(C(O)(c3ccccc3)c3ccccc3)n2C)n(C)c1=O`, the T/C was 122 % of control (dose: 40.0 mg/kg/injection, schedule: Q01DX011 (ip), vehicle: methylcellulose (MC)) and 66 % of control under setting [1].
